Data reported in PubChem BioAssay (NCI).
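Protocol summary: plate cells (96-well), add compound at 5 concentrations, incubate 48 h, interpolate endpoints linearly. At the TGI there is no net growth.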

How the values were obtained:
Assay in all cases: NCI anticancer screen, dose series, 48 h
EKVX NSCLC = test system: EKVX NSCLC
DU-145 prostate = test system: DU-145 prostate
MDA-MB-435 = test system: MDA-MB-435
ACHN renal = test system: ACHN renal
A549 NSCLC = test system: A549 NSCLC
LOX IMVI melanoma = test system: LOX IMVI melanoma
MDA-MB-231 breast = test system: MDA-MB-231 breast
HOP-62 NSCLC = test system: HOP-62 NSCLC
SK-MEL-28 melanoma = test system: SK-MEL-28 melanoma
HCT-116 colon = test system: HCT-116 colon
OVCAR-4 ovarian = test system: OVCAR-4 ovarian
UO-31 renal = test system: UO-31 renal
HCC-2998 colon = test system: HCC-2998 colon
NCI-H522 lung = test system: NCI-H522 lung
786-0 renal = test system: 786-0 renal
RPMI-8226 leukemia = test system: RPMI-8226 leukemia
OVCAR-3 ovarian = test system: OVCAR-3 ovarian
SK-MEL-5 melanoma = test system: SK-MEL-5 melanoma
CAKI-1 renal = test system: CAKI-1 renal
IGROV1 ovarian = test system: IGROV1 ovarian
SN12C renal = test system: SN12C renal
UACC-62 melanoma = test system: UACC-62 melanoma
OVCAR-5 ovarian = test system: OVCAR-5 ovarian
KM12 colon = test system: KM12 colon
SK-OV-3 ovarian = test system: SK-OV-3 ovarian
RXF 393 renal = test system: RXF 393 renal
SW-620 colon = test system: SW-620 colon
M14 melanoma = test system: M14 melanoma
COLO 205 colon = test system: COLO 205 colon
SNB-19 CNS = test system: SNB-19 CNS
TK-10 renal = test system: TK-10 renal
MCF7 breast = test system: MCF7 breast
BT-549 breast = test system: BT-549 breast
HS 578T breast = test system: HS 578T breast
MALME-3M melanoma = test system: MALME-3M melanoma
UACC-257 melanoma = test system: UACC-257 melanoma
MDA-N = test system: MDA-N
NCI/ADR-RES ovarian = test system: NCI/ADR-RES ovarian
SF-295 CNS = test system: SF-295 CNS
HOP-92 NSCLC = test system: HOP-92 NSCLC
NCI-H226 lung = test system: NCI-H226 lung
OVCAR-8 ovarian = test system: OVCAR-8 ovarian
SR leukemia = test system: SR leukemia
SF-268 CNS = test system: SF-268 CNS
HCT-15 colon = test system: HCT-15 colon
HT29 colon = test system: HT29 colon
SF-539 CNS = test system: SF-539 CNS
NCI-H23 lung = test system: NCI-H23 lung
NCI-H460 lung = test system: NCI-H460 lung
HL-60(TB) leukemia = test system: HL-60(TB) leukemia
T-47D breast = test system: T-47D breast
SK-MEL-2 melanoma = test system: SK-MEL-2 melanoma
MOLT-4 leukemia = test system: MOLT-4 leukemia
PC-3 prostate = test system: PC-3 prostate
U251 CNS = test system: U251 CNS
SNB-75 CNS = test system: SNB-75 CNS
K-562 leukemia = test system: K-562 leukemia
CCRF-CEM leukemia = test system: CCRF-CEM leukemia

CCCCCCCCCCCCCCCCNc1nc(=O)n(C2CC(O)C(CO)O2)cc1F (stereo not given)
TGI (EKVX NSCLC): 30.9 µM | TGI (DU-145 prostate): 21.6 µM | TGI (MDA-MB-435): 24.6 µM | TGI (ACHN renal): 11.9 µM | TGI (A549 NSCLC): 18.7 µM | TGI (LOX IMVI melanoma): 24.1 µM | TGI (MDA-MB-231 breast): 43.3 µM | TGI (HOP-62 NSCLC): 20 µM | TGI (SK-MEL-28 melanoma): 28.4 µM | TGI (HCT-116 colon): 23.5 µM | TGI (OVCAR-4 ovarian): 40.4 µM | TGI (UO-31 renal): 18.8 µM | TGI (HCC-2998 colon): 14.2 µM | TGI (NCI-H522 lung): 20.7 µM | TGI (786-0 renal): 21.7 µM | TGI (RPMI-8226 leukemia): 37.6 µM | TGI (OVCAR-3 ovarian): 39.3 µM | TGI (SK-MEL-5 melanoma): 48.1 µM | TGI (CAKI-1 renal): 23.3 µM | TGI (IGROV1 ovarian): 27.6 µM | TGI (SN12C renal): 26.9 µM | TGI (UACC-62 melanoma): 22.8 µM | TGI (OVCAR-5 ovarian): 47.6 µM | TGI (KM12 colon): 34 µM | TGI (SK-OV-3 ovarian): 28.3 µM | TGI (RXF 393 renal): 28.4 µM | TGI (SW-620 colon): 32.1 µM | TGI (M14 melanoma): 27.2 µM | TGI (COLO 205 colon): 48.6 µM | TGI (SNB-19 CNS): 34.6 µM | TGI (TK-10 renal): 27.5 µM | TGI (MCF7 breast): 19.9 µM | TGI (BT-549 breast): 32.4 µM | TGI (HS 578T breast): 38.7 µM | TGI (MALME-3M melanoma): 22.8 µM | TGI (UACC-257 melanoma): 33.9 µM | TGI (MDA-N): 72.1 µM | TGI (NCI/ADR-RES ovarian): 27.1 µM | TGI (SF-295 CNS): 30.1 µM | TGI (HOP-92 NSCLC): 25.1 µM | TGI (NCI-H226 lung): 10.8 µM | TGI (OVCAR-8 ovarian): 23.9 µM | TGI (SR leukemia): 26.3 µM | TGI (SF-268 CNS): 22.3 µM | TGI (HCT-15 colon): 26.1 µM | TGI (HT29 colon): 21.5 µM | TGI (SF-539 CNS): 11.4 µM | TGI (NCI-H23 lung): 18 µM | TGI (NCI-H460 lung): 27.3 µM | TGI (HL-60(TB) leukemia): 27.7 µM | TGI (T-47D breast): 25.3 µM | TGI (SK-MEL-2 melanoma): 40.3 µM | TGI (MOLT-4 leukemia): 37.7 µM | TGI (PC-3 prostate): 21.2 µM | TGI (U251 CNS): 33.1 µM

CN1C2CC(=O)CC1[C@@H]1OC(c3ccccc3)O[C@H]21 (stereo not given in full)
TGI (EKVX NSCLC): > 100 µM | TGI (DU-145 prostate): > 100 µM | TGI (MDA-MB-435): > 100 µM | TGI (SNB-75 CNS): > 100 µM | TGI (A549 NSCLC): > 100 µM | TGI (LOX IMVI melanoma): > 100 µM | TGI (MDA-MB-231 breast): > 100 µM | TGI (HOP-62 NSCLC): > 100 µM | TGI (SK-MEL-28 melanoma): > 100 µM | TGI (HCT-116 colon): > 100 µM | TGI (OVCAR-4 ovarian): > 100 µM | TGI (UO-31 renal): > 100 µM | TGI (HCC-2998 colon): > 100 µM | TGI (NCI-H522 lung): > 100 µM | TGI (786-0 renal): > 100 µM | TGI (RPMI-8226 leukemia): > 100 µM | TGI (OVCAR-3 ovarian): > 100 µM | TGI (SK-MEL-5 melanoma): > 100 µM | TGI (CAKI-1 renal): > 100 µM | TGI (IGROV1 ovarian): > 100 µM | TGI (SN12C renal): > 100 µM | TGI (UACC-62 melanoma): > 100 µM | TGI (KM12 colon): > 100 µM | TGI (SK-OV-3 ovarian): > 100 µM | TGI (RXF 393 renal): > 100 µM | TGI (SW-620 colon): > 100 µM | TGI (M14 melanoma): > 100 µM | TGI (COLO 205 colon): > 100 µM | TGI (SNB-19 CNS): > 100 µM | TGI (TK-10 renal): > 100 µM | TGI (MCF7 breast): > 100 µM | TGI (BT-549 breast): > 100 µM | TGI (HS 578T breast): > 100 µM | TGI (MALME-3M melanoma): > 100 µM | TGI (UACC-257 melanoma): > 100 µM | TGI (MDA-N): > 100 µM | TGI (NCI/ADR-RES ovarian): > 100 µM | TGI (SF-295 CNS): > 100 µM | TGI (NCI-H226 lung): > 100 µM | TGI (OVCAR-8 ovarian): > 100 µM | TGI (SR leukemia): > 100 µM | TGI (SF-268 CNS): > 100 µM | TGI (HCT-15 colon): > 100 µM | TGI (HT29 colon): > 100 µM | TGI (K-562 leukemia): > 100 µM | TGI (SF-539 CNS): > 100 µM | TGI (NCI-H23 lung): > 100 µM | TGI (NCI-H460 lung): > 100 µM | TGI (CCRF-CEM leukemia): > 100 µM | TGI (HL-60(TB) leukemia): > 100 µM | TGI (T-47D breast): > 100 µM | TGI (SK-MEL-2 melanoma): > 100 µM | TGI (MOLT-4 leukemia): > 100 µM | TGI (PC-3 prostate): > 100 µM | TGI (U251 CNS): > 100 µM
